Values of other authors in patent US11612656B2, “Use of small molecule based on indotricarbocyanine structure in preparation of medicines for tumor photothermal therapy” (Nanjing Nuoyuan Medical Devices Co., LTD., priority 2021, dated 2023).

Conditions: free ICG 20 μg/ml, light irradiation at power density 1 W/cm^2

In the case of `CC1(C)C(/C=C/C=C/C=C/C=C2/N(CCCCS(=O)(=O)O)c3ccc4ccccc4c3C2(C)C)=[N+](CCCCS(=O)(=O)O)c2ccc3ccccc3c21.[Na+]` [ICG, Indocyanine green], the “photothermal conversion efficiency (PTCE)” value is listed as 15.1%.
